Our source for the Ki values is BindingDB's records for doi:10.1016/j.bmcl.2011.07.114 (Pfizer, 2011).

In this experiment the target is Histamine H4 receptor (Homo sapiens, UniProt Q9H3N8). Kind of experiment: Displacement of [3H]histamine from human histamine H4 receptor expressed in CHO cells after 90 mins by scintillation counting technique. A general note: In a radioligand displacement assay an active substance lowers the binding of a labelled ligand.

Molecules are shown by their SMILES.

Sequence of Histamine H4 receptor (Q9H3N8 whole entry): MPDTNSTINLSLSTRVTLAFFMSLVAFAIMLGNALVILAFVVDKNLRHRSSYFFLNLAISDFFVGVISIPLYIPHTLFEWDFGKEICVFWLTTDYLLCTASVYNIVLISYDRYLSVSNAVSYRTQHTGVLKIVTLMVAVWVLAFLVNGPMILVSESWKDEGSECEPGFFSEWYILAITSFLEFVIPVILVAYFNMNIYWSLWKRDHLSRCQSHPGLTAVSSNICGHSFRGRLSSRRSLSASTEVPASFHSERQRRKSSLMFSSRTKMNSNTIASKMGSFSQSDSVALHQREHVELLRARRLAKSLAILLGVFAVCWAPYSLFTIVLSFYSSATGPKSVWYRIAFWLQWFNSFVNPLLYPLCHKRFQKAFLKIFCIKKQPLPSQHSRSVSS

As for `COCc1ccc(CN2CC[C@H](Nc3cc(NCCC(C)(C)C)ncn3)C2)o1`, the Ki (as a rule, the equilibrium dissociation constant of an inhibitor or competing ligand from its target) was found to be 20 µM.

Take `CC(C)(C)CCNc1cc(N[C@H]2CCN(Cc3cccc(F)c3O)C2)ncn1`: the Ki was 20 µM.
